The values below come from ChEMBL document CHEMBL1134186, “Protein phosphatase 1 catalyses the direct hydrolytic cleavage of phosphate monoester in a ternary complex mechanism” (Bioorg Med Chem Lett, 2001).

The Km is the substrate concentration at which the rate is half of its maximum. As a reminder, the Ki is the dissociation constant of the complex between target and ligand, obtained from inhibition or displacement.

Where a SMILES comes first, the peptide text is derived from it.

One data set concerns protein phosphatase. As to the kind of experiment: Compound was evaluated for the Michaelis-Menten constant, Km in a generic protein phosphatase stopped assay system. The data set is classed as ADME.
Data set [1] can be described thus: Compound was evaluated for the Ki value for peptide alcohol for competitive inhibition in the presence of Mn2+ ions at pH 7.5. The data set is classed as ADME.

Consider `CC(=O)N[C@@H](CCCN=C(N)N)C(=O)N[C@@H](CCCN=C(N)N)C(=O)N[C@@H](C)C(=O)N[C@H](C(=O)N[C@H](C(=O)N[C@@H](C)C(=O)O)C(C)C)[C@@H](C)OP(=O)(O)O` (HELM PEPTIDE1{[ac].R.R.A.[C[C@@H](OP(=O)(O)O)[C@H](N[*:1])C(=O)[*:2]].V.A}$$$$V2.0), for which, in the data set with protein phosphatase, the Km was determined as 3.7 mM. Further, the Ki in data set [1] is 1.6 mM.

As for H-RRATVA-OH, in data set [1], the inhibitory constant (Ki) was > 30 mM.
